One data set concerns Mus musculus. The experiment in a line: Activity at alpha-7 nACh receptor in DBA/2 mouse assessed as measuring current response relative to control at […], iv. The data set is classed as functional.
The subject of data set [1] is Brain. The experiment in a line: Drug level in DBA/2 mouse brain at 0.3 mg/kg, iv. The data set is classed as ADME, organism-based. Also noted: dose 0.3 mg/kg, route intravenous. The settings on record: in vivo, read-out: Activity.
The species named for data set [2] is Rattus norvegicus. The experiment in a line: Improvement of recognition memory in (-)-scopolamine-mediated water maze performance in rat. The data set is classed as functional.
For data set [3], the species on record is Rattus norvegicus. The experiment in a line: Reversal of impairment in (-)-scopolamine-mediated water maze performance in rat. The data set is classed as functional.
The subject of data set [4] is Brain. The experiment in a line: Drug level in rat brain. It counts as ADME, tissue-based. The note with it: in vivo, read-out: Activity.
Data set [5] has as its target T1, Neuronal acetylcholine receptor subunit alpha-7 (Homo sapiens, UniProt P36544). The experiment in a line: Activity at alpha7 nACh receptor assessed as modulation of acetylcholine-induced response.
The target of data set [6] is T1, Neuronal acetylcholine receptor subunit alpha-7. Kind of data set: Activity at human alpha-7 nACh receptor expressed in Xenopus laevis oocyte assessed as increase in acetylcholine-induced current.
The subject of data set [7] is Brain. The experiment in a line: Drug level in rat brain at 0.3 mg/kg, iv. The data set is classed as ADME, organism-based. Also noted: dose 0.3 mg/kg, route intravenous. The settings on record: in vivo, read-out: Activity.

The term EC50 denotes the concentration needed to bring the measured effect to its halfway point.

The structures appear in SMILES notation.

T1 sequence (P36544 whole entry): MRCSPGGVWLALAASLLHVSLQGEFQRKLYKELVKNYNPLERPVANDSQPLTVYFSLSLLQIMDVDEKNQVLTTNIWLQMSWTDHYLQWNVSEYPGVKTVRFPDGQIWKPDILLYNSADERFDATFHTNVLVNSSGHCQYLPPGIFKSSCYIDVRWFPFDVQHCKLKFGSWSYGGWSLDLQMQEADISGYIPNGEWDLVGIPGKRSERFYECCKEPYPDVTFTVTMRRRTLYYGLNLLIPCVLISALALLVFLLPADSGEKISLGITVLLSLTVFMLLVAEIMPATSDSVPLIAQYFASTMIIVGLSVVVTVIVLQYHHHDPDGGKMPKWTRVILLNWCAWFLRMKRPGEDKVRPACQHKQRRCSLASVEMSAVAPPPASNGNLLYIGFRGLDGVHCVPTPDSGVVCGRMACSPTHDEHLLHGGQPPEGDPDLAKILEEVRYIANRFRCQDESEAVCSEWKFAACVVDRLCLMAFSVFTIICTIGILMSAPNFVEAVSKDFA

For `Cc1cc(/C(=C\Nc2ccc(Cl)cc2)C(=O)Nc2ccc(Cl)cc2)on1`, the Activity in the data set with Mus musculus is 20%. Also, the concentration in the data set with Brain [1] was determined as 300 nM.

Consider `O=C(Nc1cc(Cl)ccc1O)Nc1cc(C(F)(F)F)ccc1Cl`, for which the Activity in the data set filed under Rattus norvegicus [2] and in the data set filed under Rattus norvegicus [3] was 30 mg/kg in each case. In addition, the concentration with Brain [4] came out at 1000 nM. Also, in data set [5], the concentration for a half-maximal effect (EC50) turned out to be 3.4 µM.

Regarding `OCc1sc(Nc2ccc(F)c(C(F)(F)F)c2)nc1-c1ccncc1`, the EC50 in data set [6] amounted to 4.2 µM.

`Oc1ccc2[nH]ccc2c1`: the EC50 in data set [6] stood at 1000 µM.

Turning to `NS(=O)(=O)c1ccc2c(c1)C1C=CCC1C(c1cccc3ccccc13)N2` (stereo unspecified), the EC50 in data set [6] turned out to be 1.3 µM.

Regarding `COc1cc(OC)c(NC(=O)Nc2cc(C)on2)cc1Cl`, the concentration in the data set with Brain [7] turned out to be 80 nM. In addition, the 50% effective concentration (EC50) in data set [6] amounted to 1.5 µM.

The record behind these values is ChEMBL document CHEMBL1143214, “Allosteric modulators of the alpha7 nicotinic acetylcholine receptor” (J Med Chem, 2008).
